According to US8367328B2, “Method for synthesizing DNA” (Takara Bio Inc., priority 1998, dated 2013):

How the values were obtained:
LA-Taq DNA Polymerase = assay: PCR with LA-Taq DNA Polymerase in the presence of cationic complexes (GC-rich region, long chain); assay type: biochemical; settings: for DNA synthesis reaction when amplifying GC-rich region: human ApoE genomic region 441 bp, GC about 74%, 100 ng HT29 genomic DNA, complex 50, 100, 200 or 500 μM, no amplification without addition
Experimental: The effects on addition of the cationic complex were examined when PCR amplification was carried out with a GC-rich region as a target. As the cationic complex, there was used tris(ethylenediamine)cobalt (III) chloride, or tris(ethylenediamine)rhodium (III) trichloride•trihydrate. Template DNA was prepared from HT29 cells by conventional method. Amplified region and amplified chain lengths were human ApoE genomic region and 441 bp. The GC content of this amplified region was about 74%. As DNA polymerase, TaKaRa LA-Taq DNA Polymerase (manufactured by Takara Shuzo Co., Ltd., hereinafter referred to as “LA-Taq DNA Polymerase”) was used. The composition for a reaction mixture is shown below.
25 μl of 2×GC buffer I (manufactured by Takara Shuzo Co., Ltd.), 0.4 mM each of dATP, dCTP, dGTP and dTTP, 2.5 U of LA-Taq DNA Polymerase, 100 ng of HT29 cells genomic region, and 20 pmol each of primers ApoE-1 and ApoE-2 (a final volume being 50 μl). Each of the above cationic complex was added to the above reaction mixture so as to have a final concentration of 50, 100, 200, or 500 μM, respectively.
The reaction was carried out in Fast mode by using TaKaRa PCR Thermal Cycler Personal. As regarding the reaction conditions, the reaction in 30 cycles was carried out, wherein one cycle of reaction comprises a process consisting of 98° C., 5 seconds—64° C., 10 seconds—72° C., 40 seconds. On the other hand, as a control, the reaction for one without addition of the cationic complex was carried out in the same manner.
After the termination of the reaction, 5 μl of each of the resulting reaction mixtures was subjected to electrophoresis on 2% agarose gel containing ethidium bromide in an amount of 0.00005%. The gel after the electrophoresis was subjected to ultraviolet irradiation to visualize the band ascribed to the amplified product, whereby an amplified fragment was confirmed.
The effects on the amplified chain length when adding a cationic complex were examined. As the cationic complex, there was used hexaamminecobalt (III) trichloride. […]

Pyrobest DNA Polymerase = assay: PCR with Pyrobest DNA Polymerase in the presence of cationic complexes; assay type: biochemical, Pyrococcus sp.; settings: for Amount of amplified DNA relative to No Addition (=1), Pyrobest: 100 pg E. coli JM109 genomic DNA, primers Eco1/Eco2, 30 cycles 98°C 5 s–68°C 2 min, FM-BIO 100

| SMILES | DNA synthesis reaction when amplifying GC-rich region (LA-Taq DNA Polymerase) | Amount of amplified DNA relative to No Addition (=1), Pyrobest (Pyrobest DNA Polymerase; complex 50 μM) | Amount of amplified DNA relative to No Addition (=1), Pyrobest (Pyrobest DNA Polymerase; complex 100 μM) | Amount of amplified DNA relative to No Addition (=1), Pyrobest (Pyrobest DNA Polymerase; complex 200 μM) | Amplification of desired long DNA fragment (LA-Taq DNA Polymerase; LA-Taq, 1 ng λDNA, primers λL36/λR485 (48.5 kb), 30 cycles 98°C 10 s–68°C 15 min, 50 μM, only slight without addition) | Amplification of desired long DNA fragment (Pyrobest DNA Polymerase; Pyrobest, 10 ng E. coli genome, primers Eco1/Eco5 (10 kb), 30 cycles 98°C 5 s–68°C 10 min, 50 μM or 100 μM, only slight without addition) | Primer amount with which a fragment can still be amplified (Pyrobest DNA Polymerase; Pyrobest, 100 μM complex, primers 2–20 pmol tested, no amplification without addition) | Amount of template DNA at which amplification was still possible (Pyrobest DNA Polymerase; Pyrobest, 100 μM complex, templates 1 pg–1 ng tested, no amplification at 1 pg without addition) | Amplification in low-magnesium reaction mixture (Pyrobest DNA Polymerase; Pyrobest, 0.5 mM magnesium chloride (usual 1 mM), 100 μM complex, no amplification without addition) |
| --- | --- | --- | --- | --- | --- | --- | --- | --- | --- |
| NCCN.NCCN.NCCN.O.O.O.[Cl][Rh]([Cl])[Cl] [[Rh(H2NCH2CH2NH2)3]Cl3, tris(ethylenediamine)rhodium (III) trichloride•trihydrate] | enhanced as the concentration of added complex was increased as 100 μM, 200 μM and 500 μM | 1.4 | 1.7 | 2.0 |  |  |  |  |  |
| NCCN.NCCN.NCCN.[Cl-].[Cl-].[Cl-].[Co+3] [[Co(H2NCH2CH2NH2)3]Cl3, tris(ethylenediamine)cobalt (III) chloride] | enhanced as the concentration of added complex was increased | 2.1 | 2.2 |  |  |  |  |  |  |
| N.N.N.N.N.N.[Cl-].[Cl-].[Cl-].[Co+3] [[Co(NH3)6]Cl3, hexaamminecobalt (III) chloride] |  | 2.1 | 2.1 | 2.1 | excellently amplified | excellently amplified | 3.3 pmol | 1 pg | allowed to amplify |
